For assay [1], the target named is recombinant human EGFR L858R/C797S double mutant protein (Homo sapiens (Human), UniProt P00533, C797S/L858R). The assay is described as follows: Biological Activity Assay B: biochemical assay against EGFR L858R/C797S protein (EGFR LR/CS). How it is done:
In Row A of a 384-well polypropylene plate, was added 48 μL of DMSO. In wells A1 and A24, were added 12 μL of DMSO. […] To a well in Row A were added 12 μL of each 10 mM test compound stock (100% DMSO). […] The final intermediate dilution plate contained 4×16-point compound serial dilutions in assay buffer. The DMSO concentration was 10%. The intermediate compound dilution plate was transferred to the Bravo and the “5 uL dispense into ARP.pro” protocol was run. To the black low volume assay ready plates, were added 5 μL of 40 uM Phosphosens peptide sensor/4 mM ATP working solution to each well. […] To column 24, was added 10 μL of assay buffer. The final DMSO concentration was 2.5%. […] The plates were sealed with the TopSeal-A Plus plate seals. […] Set for 90 cycles with 120 second interval. […] The slope of each curve was constructed using Dotmatics in each well, and each IC50s was calculated using a 4-parameter fit model.

Assay [2] relates to BaF3_EGFR d19/CS cells. The assay is described as follows: Biological Activity Assay D: BaF3 cell proliferation assay, EGFR exon 19 deletion/C797S (BaF3 d19/CS). The format is cell-based. The settings on record: Ba/F3 EGFR; BaF3_EGFR d19/CS cells, ~72 hours, CellTiter-Glo; read-out: BaF3 d19/CS IC50.
The test system of assay [3] is BaF3_EGFR LR/CS cells. Put plainly: Biological Activity Assay D: BaF3 cell proliferation assay, EGFR L858R/C797S mutant (BaF3 LR/CS). It is filed as cell-based. The settings on record: Ba/F3 EGFR; BaF3_EGFR LR/CS cells, ~72 hours, CellTiter-Glo; read-out: BaF3 LR/CS IC50.
Assay [4] has as its system Ba/F3_EGFR WT cells. The assay is described as follows: Biological Activity Assay D: BaF3 cell proliferation assay, EGFR wild-type (BaF3 WT). It is filed as cell-based. The following applies: Ba/F3 EGFR; Ba/F3_EGFR WT cells, ~72 hours, CellTiter-Glo; read-out: BaF3 WT IC50. (In general: Cellular ATP, detected with luciferase, serves as a proxy for viable cell number.)
Assay [5] addresses recombinant human EGFR exon 19 deletion/C797S double mutant protein (Homo sapiens (Human), UniProt P00533, C797S/DEL746-750). Put plainly: Biological Activity Assay C: biochemical assay against EGFR exon 19 deletion/C797S protein (EGFR d19/CS). In outline:
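IC50 values were fitted with a 4-parameter model to reaction slopes taken from 90 kinetic reads spaced 120 s apart. The Phosphosens sensor/ATP working solution was 40 uM/4 mM, and compound was dosed as 16-point dilutions at 2.5% final DMSO.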

Sequence of recombinant human EGFR L858R/C797S double mutant protein (P00533 25-1210 C797S/L858R): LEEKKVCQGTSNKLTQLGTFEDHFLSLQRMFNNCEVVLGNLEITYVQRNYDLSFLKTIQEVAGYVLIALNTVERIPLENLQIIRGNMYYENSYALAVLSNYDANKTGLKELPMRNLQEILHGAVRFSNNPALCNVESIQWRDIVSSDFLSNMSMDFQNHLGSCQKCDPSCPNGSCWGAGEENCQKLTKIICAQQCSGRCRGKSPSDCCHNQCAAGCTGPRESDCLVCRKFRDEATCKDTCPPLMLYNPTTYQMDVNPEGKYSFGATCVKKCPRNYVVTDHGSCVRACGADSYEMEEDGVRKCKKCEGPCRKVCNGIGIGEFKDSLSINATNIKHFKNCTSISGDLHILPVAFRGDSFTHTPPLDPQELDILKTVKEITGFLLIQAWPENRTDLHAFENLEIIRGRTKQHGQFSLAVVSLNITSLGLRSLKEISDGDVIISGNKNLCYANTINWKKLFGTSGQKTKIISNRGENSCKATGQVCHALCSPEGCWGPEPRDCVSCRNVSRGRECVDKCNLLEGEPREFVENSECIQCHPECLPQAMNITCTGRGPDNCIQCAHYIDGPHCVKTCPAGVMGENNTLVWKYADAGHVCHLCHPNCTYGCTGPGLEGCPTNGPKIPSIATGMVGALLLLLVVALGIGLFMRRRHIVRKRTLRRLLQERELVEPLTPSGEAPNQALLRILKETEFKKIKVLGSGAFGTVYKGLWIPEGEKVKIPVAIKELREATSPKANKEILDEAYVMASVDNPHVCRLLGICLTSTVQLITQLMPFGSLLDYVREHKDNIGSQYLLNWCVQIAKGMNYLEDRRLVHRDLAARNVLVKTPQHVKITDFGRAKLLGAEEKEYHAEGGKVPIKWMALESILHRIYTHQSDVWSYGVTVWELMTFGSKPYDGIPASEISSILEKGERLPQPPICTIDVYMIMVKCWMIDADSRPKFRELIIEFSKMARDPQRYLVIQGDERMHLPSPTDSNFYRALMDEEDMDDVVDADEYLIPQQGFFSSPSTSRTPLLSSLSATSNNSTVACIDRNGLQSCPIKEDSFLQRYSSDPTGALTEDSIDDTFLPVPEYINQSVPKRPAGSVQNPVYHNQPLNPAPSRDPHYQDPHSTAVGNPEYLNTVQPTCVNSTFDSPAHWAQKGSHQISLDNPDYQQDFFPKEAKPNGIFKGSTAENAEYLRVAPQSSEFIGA
Sequence of recombinant human EGFR exon 19 deletion/C797S double mutant protein (P00533 other isoform, or with tags, fused parts or gaps C797S/del 1-668/del 746-750 limits assumed): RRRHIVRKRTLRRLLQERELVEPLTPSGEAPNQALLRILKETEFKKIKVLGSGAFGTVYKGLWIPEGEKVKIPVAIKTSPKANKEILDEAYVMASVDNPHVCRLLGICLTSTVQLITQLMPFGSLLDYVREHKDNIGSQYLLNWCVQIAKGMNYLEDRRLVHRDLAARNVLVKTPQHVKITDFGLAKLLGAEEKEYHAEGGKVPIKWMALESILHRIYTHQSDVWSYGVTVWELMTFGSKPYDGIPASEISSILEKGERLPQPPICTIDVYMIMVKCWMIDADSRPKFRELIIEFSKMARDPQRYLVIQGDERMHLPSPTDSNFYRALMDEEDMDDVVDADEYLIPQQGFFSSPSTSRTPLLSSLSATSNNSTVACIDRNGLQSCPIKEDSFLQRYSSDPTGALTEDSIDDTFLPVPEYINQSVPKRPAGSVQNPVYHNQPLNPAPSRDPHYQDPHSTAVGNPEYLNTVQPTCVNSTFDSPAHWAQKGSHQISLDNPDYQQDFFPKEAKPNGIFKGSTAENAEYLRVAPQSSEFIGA

Turning to `CS(=O)(=O)N1CCC(n2cc(-c3ncnc4oc(-c5ccccc5)cc34)c(-c3ccc(F)cc3)n2)C1` (racemic) [Example 89, 4-{3-(4-fluorophenyl)-1-[1-(methanesulfonyl)pyrrolidin-3-yl]-1H-pyrazol-4-yl}-6-phenylfuro[2,3-d]pyrimidine], the IC50 in assay [1] worked out at 0.38 nM; in assay [2], 20.4 nM; in assay [3] it was 19.9 nM; in assay [4], 373 nM; in assay [5], 0.3 nM.
With `O=S1(=O)CCCC(Cn2cc(-c3ncnc4oc(-c5ccccc5)cc34)c(-c3ccc(F)cc3)n2)C1` (racemic) [Example 115, 3-{[3-(4-Fluorophenyl)-4-(6-phenylfuro[2,3-d]pyrimidin-4-yl)-1H-pyrazol-1-yl]methyl}-1λ6-thiane-1,1-dione], the IC50 turned out to be 0.41 nM in assay [1]; 110 nM in assay [2]; 31.6 nM in assay [3]; 703 nM in assay [4]; 0.31 nM in assay [5].
For `O=S1(=O)CC[C@@H](n2cc(-c3ncnc4oc(-c5ccccc5)cc34)c(-c3ccc(F)cc3)n2)C1` (single isomer, unassigned) [Example 72], in that order: 0.65 nM, 24.2 nM, 26.1 nM, 1340 nM and 0.36 nM.
`O=S1(=O)CC[C@H](n2cc(-c3ncnc4oc(-c5ccccc5)cc34)c(-c3ccc(F)cc3)n2)C1` (single isomer, unassigned) [Example 73]: the IC50 turned out to be 0.77 nM in assay [1]; 56 nM in assay [2]; 80.9 nM in assay [3]; 2490 nM in assay [4]; 0.48 nM in assay [5].
Consider `Fc1ccc(-c2nn([C@@H]3CCOC3)cc2-c2ncnc3oc(-c4ccccc4)cc23)cc1` (single isomer, unassigned) [Example 90], for which the IC50 in assay [1] was found to be 0.51 nM; in assay [2], 64.9 nM; in assay [3] it was 36.2 nM; in assay [4] it was 1510 nM; in assay [5], 0.24 nM.
With `Fc1ccc(-c2nn([C@H]3CCOC3)cc2-c2ncnc3oc(-c4ccccc4)cc23)cc1` (single isomer, unassigned) [Example 91], the IC50 in assay [1] amounted to 0.37 nM; in assay [2], 39.9 nM; in assay [3] it was 23.8 nM; in assay [4] it was 1280 nM; in assay [5], 0.23 nM.
`O=S1(=O)CC[C@H](Cn2cc(-c3ncnc4oc(-c5ccccc5)cc34)c(-c3ccc(F)cc3)n2)C1` (single isomer, unassigned) [Example 96]: the IC50 was 0.39 nM in assay [1]; 150 nM in assay [2]; 73.8 nM in assay [3]; 1480 nM in assay [4]; 0.62 nM in assay [5].
Consider `O=S1(=O)CC[C@@H](Cn2cc(-c3ncnc4oc(-c5ccccc5)cc34)c(-c3ccc(F)cc3)n2)C1` (single isomer, unassigned) [Example 97], for which the IC50 in assay [1] turned out to be 0.33 nM; in assay [2], 79.4 nM; in assay [3] it was 39.2 nM; in assay [4], 1190 nM; in assay [5], 0.34 nM.
For `O=S1(=O)CCC[C@@H](n2cc(-c3ncnc4oc(-c5ccccc5)cc34)c(-c3ccc(F)cc3)n2)C1` (single isomer, unassigned) [Example 99], in that order: 5.7 nM, 701 nM, 822 nM, greater than 20000 nM and 8.51 nM.
For `O=S1(=O)CCC[C@H](n2cc(-c3ncnc4oc(-c5ccccc5)cc34)c(-c3ccc(F)cc3)n2)C1` (single isomer, unassigned) [Example 100], in that order: 2.76 nM, 319 nM, 407 nM, 13300 nM and 4.23 nM.
Turning to `CS(=O)(=O)N1CC[C@@H](n2cc(-c3ncnc4oc(-c5ccccc5)cc34)c(-c3ccc(F)cc3)n2)C1` (single isomer, unassigned) [Example 101], the IC50 in assay [1] worked out at 0.39 nM; in assay [2] it was 4.96 nM; in assay [3], 8.69 nM; in assay [4] it was 115 nM; in assay [5], 0.27 nM.
Turning to `CS(=O)(=O)N1CC[C@H](n2cc(-c3ncnc4oc(-c5ccccc5)cc34)c(-c3ccc(F)cc3)n2)C1` (single isomer, unassigned) [Example 102], the IC50 in assay [1] was determined as 0.35 nM; in assay [2], 16.5 nM; in assay [3] it was 21.1 nM; in assay [4], 161 nM; in assay [5] it was 0.2 nM.
With `OCCCc1nc(-c2ccc(F)cc2)n(-c2ccnc3[nH]c(-c4ccccc4)cc23)n1` [Example 3, 3-[5-(4-Fluorophenyl)-1-(2-phenyl-1H-pyrrolo[2,3-b]pyridin-4-yl)-1H-1,2,4-triazol-3-yl]propan-1-ol], the IC50 in assay [1] stood at 3.15 nM; in assay [2], 169 nM; in assay [3], 130 nM; in assay [4] it was 808 nM; in assay [5], 1.66 nM.
With `OCCCn1cc(-c2ccnc3[nH]c(-c4ccccc4)nc23)c(-c2ccc(F)cc2)n1` [Example 4, 3-[3-(4-Fluorophenyl)-4-(2-phenyl-3H-imidazo[4,5-b]pyridin-7-yl)-1H-pyrazol-1-yl]propan-1-ol], the IC50 in assay [1] came out at 1.29 nM; in assay [2] it was 36.4 nM; in assay [3], 32.1 nM; in assay [4], 1400 nM; in assay [5], 0.466 nM.
Take `OCCCn1cc(-c2ncnc3oc(-c4ccccc4)nc23)c(-c2ccc(F)cc2)n1` [Example 5, 3-[3-(4-Fluorophenyl)-4-(2-phenyl[1,3]oxazolo[5,4-d]pyrimidin-7-yl)-1H-pyrazol-1-yl]propan-1-ol]: the IC50 stood at 1.2 nM in assay [1]; 90.6 nM in assay [2]; 80.3 nM in assay [3]; 2430 nM in assay [4]; 0.45 nM in assay [5].
For `OCCCn1cc(-c2ncnc3[nH]c(-c4ccccc4)nc23)c(-c2ccc(F)cc2)n1` [Example 6, 3-[3-(4-Fluorophenyl)-4-(8-phenyl-9H-purin-6-yl)-1H-pyrazol-1-yl]propan-1-ol], the IC50 in assay [1] is 0.253 nM; in assay [2], 5.81 nM; in assay [3], 4.4 nM; in assay [4], 1100 nM; in assay [5], 0.148 nM.
The corresponding values for `OCCCc1nc(-c2ccc(F)cc2)c(-c2ccnc3[nH]c(-c4ccccc4)cc23)s1` [Example 8, 3-[4-(4-Fluorophenyl)-5-(2-phenyl-1H-pyrrolo[2,3-b]pyridin-4-yl)-1,3-thiazol-2-yl]propan-1-01] are 1.09 nM, 19.6 nM, 19.6 nM, 754 nM and 1.14 nM.
In the case of `OCCCn1cc(-c2ncnc3[nH]c(-c4ccccc4)cc23)c(-c2ccc(F)cc2)n1` [Example 9, 3-[3-(4-Fluorophenyl)-4-(6-phenyl-7H-pyrrolo[2,3-d]pyrimidin-4-yl)-1H-pyrazol-1-yl]propan-1-ol], the IC50 in assay [1] came out at 0.099 nM; in assay [2], 0.547 nM; in assay [3], 0.63 nM; in assay [4], 15.4 nM; in assay [5] it was 0.121 nM.
Regarding `CN1CCN(c2ccc(-c3nc4c(-c5cn(CCCO)nc5-c5ccc(F)cc5)ncnc4o3)cc2)CC1` [Example 10, 3-[3-(4-Fluorophenyl)-4-{2-[4-(4-methylpiperazin-1-yl)phenyl][1,3]oxazolo[5,4-d]pyrimidin-7-yl}-1H-pyrazol-1-yl]propan-1-ol], the IC50 in assay [1] was found to be 0.152 nM; in assay [2], 1.31 nM; in assay [3] it was 1.63 nM; in assay [4], 74 nM; in assay [5], 0.113 nM.
Take `OCCCn1cc(-c2ncnc3oc(-c4ccccc4)cc23)c(-c2ccc(F)cc2)n1` [Example 11, 3-[3-(4-Fluorophenyl)-4-(6-phenylfuro[2,3-d]pyrimidin-4-yl)-1H-pyrazol-1-yl]propan-1-ol]: the IC50 in assay [1] was determined as 0.521 nM; in assay [2] it was 5.79 nM; in assay [3] it was 6.91 nM; in assay [4], 594 nM; in assay [5], 0.408 nM.
Turning to `OCCCc1cc(-c2ccnc3[nH]c(-c4ccccc4)cc23)n(-c2ccc(F)cc2)n1` [Example 12, 3-[1-(4-fluorophenyl)-5-{2-phenyl-1H-pyrrolo[2,3-b]pyridin-4-yl}pyrazol-3-yl]propan-1-ol], the IC50 is 1.08 nM in assay [1]; 21.4 nM in assay [2]; 25.3 nM in assay [3]; 483 nM in assay [4]; 0.732 nM in assay [5].

The record behind these values is US20250034159A1, “INHIBITORS OF EPIDERMAL GROWTH FACTOR RECEPTOR” (ORIC Pharmaceuticals, Inc., priority 2021, published 2025).
